# Reference: paper PMC11647725, “Discovery of 4-(5-Membered)Heteroarylether-6-methylpicolinamide Negative Allosteric Modulators of Metabotropic Glutamate Receptor Subtype 5” (ACS Medicinal Chemistry Letters, 2024)
# Legend:
# [1] = target: Nicotinic Acetylcholine α3β4 (Homo sapiens, UniProt P30926+P32297); test: Lead Profiling Screen, Eurofins Panlabs; type: binding; conditions: Nicotinic Acetylcholine α3β4, hum, read-out: % inh at 10 μM
# [2] = target: Nicotinic Acetylcholine α1, Bungarotoxin (Homo sapiens, UniProt P02708+P07510+Q07001); test: biochemical; type: binding; conditions: read-out: % inh at 10 μM
# [3] = Binding in plasma from human (equilibrium dialysis); type: in vitro ADME; conditions: human, plasma, read-out: Human fu,plasma
# Method: Binding in plasma from rat and human.
# Determination of compounds’ fraction unbound (f u) in plasma from rat and human was conducted in vitro via equilibrium dialysis using HTDialysis membrane plates. Dialysis membranes (four paired strips per HTD assay) were hydrated as described by the manufacturer and inserted into the HTD plate, which was assembled and prepared for sample addition by the dispensing of blank buffer (DPBS, 100 µL/well) into the ‘top half’ of each membrane-split well. Each compound was diluted into plasma from each species (5 µM final concentration), which was aliquoted in triplicate to the ‘bottom half’ of the prepared HTD plate wells. The HTD plate was sealed and incubated for 6 hours at 37 °C. Following incubation, each well (both top and bottom halves) were transferred (20 µL) to the corresponding wells of a 96-shallow-well (V-bottom) plate. The daughter plates were then matrix-matched (buffer side wells received equal volume of plasma, and plasma side wells received equal volume of buffer), and extraction solution (120 µL; acetonitrile containing 50 nM carbamazepine as IS) was added to all wells of both daughter plates to precipitate protein and extract test article. The plates were then sealed and centrifuged (3500 rcf) for 10 minutes at ambient temperature. Supernatant (60 µL) from each well of the daughter plates was then transferred to the corresponding wells of new daughter plates (96-shallow-well, V bottom) containing water (Milli-Q, 60 µL/well), and the plates were sealed in preparation for LC-MS/MS analysis (see below). fu was calculated as (analyte to IS MS peak area ratio from Trans-buffer side) / (analyte to IS MS peak area ratio from Cis-plasma side). Mean values for each species were calculated from 3 replicates. […]
# Mean values for each species were calculated from 3 replicates. […]
# After 5 minutes (pre-incubation), reactions were initiated by addition of nicotinamide adenine dinucleotide phosphate (NADPH, 1 mM final concentration). At selected time intervals (0, 3, 7, 15, 25, and 45 minutes) post-addition of NADPH, aliquots (50 µL) were taken and placed into a 96-shallow-well plate containing ice cold acetonitrile (150 µL) with carbamazepine (IS, 50 nM). The plates were then centrifuged (3000 rcf at 4 °C) for 10 minutes. The supernatants were transferred to a new 96-shallow-well daughter plate and diluted (1:1 v/v) with water (Milli-Q filtered). The plates were then sealed in preparation for LC-MS/MS analysis (see below).
# [4] = target: Interleukin IL-1 R1 (Homo sapiens, UniProt P14778); test: Lead Profiling Screen, Eurofins Panlabs; type: binding; conditions: Interleukin IL-1 R1, hum, read-out: % inh at 10 μM
# Sequence of Interleukin IL-1 R1 (P14778 18-569): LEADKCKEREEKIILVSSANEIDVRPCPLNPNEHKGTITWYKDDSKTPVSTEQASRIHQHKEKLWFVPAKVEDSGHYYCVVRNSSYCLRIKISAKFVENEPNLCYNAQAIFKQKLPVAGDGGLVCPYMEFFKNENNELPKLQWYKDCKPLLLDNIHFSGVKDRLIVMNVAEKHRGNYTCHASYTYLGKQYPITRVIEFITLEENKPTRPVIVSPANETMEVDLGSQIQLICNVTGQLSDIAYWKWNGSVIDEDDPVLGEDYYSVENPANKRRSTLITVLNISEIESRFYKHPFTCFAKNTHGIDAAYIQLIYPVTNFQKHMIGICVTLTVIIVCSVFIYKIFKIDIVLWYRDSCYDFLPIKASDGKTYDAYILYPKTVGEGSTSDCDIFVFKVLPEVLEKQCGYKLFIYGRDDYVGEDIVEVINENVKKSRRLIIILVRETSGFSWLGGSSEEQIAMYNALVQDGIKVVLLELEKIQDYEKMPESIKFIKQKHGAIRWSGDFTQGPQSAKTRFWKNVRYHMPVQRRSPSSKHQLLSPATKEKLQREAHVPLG
# [5] = target: T1, CYP 2D6 (Homo sapiens, UniProt P10635); test: P450 inhibition in pooled human liver microsomes; type: in vitro ADME; conditions: pooled HLM, NADPH, CYP-specific probe substrates; listed as VU6043653
# T1 construct: from tissue; host or cells: pooled human liver microsomes (per the earlier reading)
# T1 sequence (P10635 whole entry): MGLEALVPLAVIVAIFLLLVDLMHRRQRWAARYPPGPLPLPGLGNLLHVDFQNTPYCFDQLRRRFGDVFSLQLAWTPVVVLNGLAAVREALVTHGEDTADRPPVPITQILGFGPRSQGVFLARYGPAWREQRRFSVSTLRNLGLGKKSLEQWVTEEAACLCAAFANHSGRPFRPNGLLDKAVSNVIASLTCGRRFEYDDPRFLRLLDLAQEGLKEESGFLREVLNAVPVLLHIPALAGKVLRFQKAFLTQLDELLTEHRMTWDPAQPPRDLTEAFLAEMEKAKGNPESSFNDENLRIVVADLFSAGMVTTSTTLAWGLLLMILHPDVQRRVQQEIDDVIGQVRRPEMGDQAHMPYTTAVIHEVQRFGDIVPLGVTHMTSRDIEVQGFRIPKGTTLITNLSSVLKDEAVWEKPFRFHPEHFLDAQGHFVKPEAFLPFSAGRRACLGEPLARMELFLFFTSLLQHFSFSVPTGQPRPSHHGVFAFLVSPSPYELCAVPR
# [6] = target: T2, CYP 1A2 (Homo sapiens, UniProt P05177); test: P450 inhibition in pooled human liver microsomes; type: in vitro ADME; conditions: pooled HLM, NADPH, CYP-specific probe substrates; listed as VU6043653
# T2 construct: from tissue; host or cells: pooled human liver microsomes (per the earlier reading)
# T2 sequence (P05177 whole entry): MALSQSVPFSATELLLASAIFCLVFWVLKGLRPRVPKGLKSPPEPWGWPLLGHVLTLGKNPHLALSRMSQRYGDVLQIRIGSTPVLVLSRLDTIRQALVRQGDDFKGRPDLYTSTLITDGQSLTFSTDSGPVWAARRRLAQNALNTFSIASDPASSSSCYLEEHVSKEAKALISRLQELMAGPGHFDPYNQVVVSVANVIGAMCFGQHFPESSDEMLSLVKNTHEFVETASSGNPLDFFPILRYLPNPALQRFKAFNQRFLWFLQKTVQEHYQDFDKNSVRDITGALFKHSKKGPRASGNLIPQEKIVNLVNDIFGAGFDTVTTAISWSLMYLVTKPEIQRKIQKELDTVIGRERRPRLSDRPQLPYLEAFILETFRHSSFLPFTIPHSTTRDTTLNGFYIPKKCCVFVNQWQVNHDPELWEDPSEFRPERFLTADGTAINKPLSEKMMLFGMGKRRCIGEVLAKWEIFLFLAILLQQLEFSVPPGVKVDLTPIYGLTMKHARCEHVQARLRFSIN
# [7] = target: T3, human mGlu5 (Homo sapiens, UniProt P41594); test: Calcium mobilization assay in human mGlu5-HEK293A cells (NAM, EC80 glutamate); type: cell-based
# T3 construct: expressed in transfected cells
# T3 sequence (P41594 21-1212): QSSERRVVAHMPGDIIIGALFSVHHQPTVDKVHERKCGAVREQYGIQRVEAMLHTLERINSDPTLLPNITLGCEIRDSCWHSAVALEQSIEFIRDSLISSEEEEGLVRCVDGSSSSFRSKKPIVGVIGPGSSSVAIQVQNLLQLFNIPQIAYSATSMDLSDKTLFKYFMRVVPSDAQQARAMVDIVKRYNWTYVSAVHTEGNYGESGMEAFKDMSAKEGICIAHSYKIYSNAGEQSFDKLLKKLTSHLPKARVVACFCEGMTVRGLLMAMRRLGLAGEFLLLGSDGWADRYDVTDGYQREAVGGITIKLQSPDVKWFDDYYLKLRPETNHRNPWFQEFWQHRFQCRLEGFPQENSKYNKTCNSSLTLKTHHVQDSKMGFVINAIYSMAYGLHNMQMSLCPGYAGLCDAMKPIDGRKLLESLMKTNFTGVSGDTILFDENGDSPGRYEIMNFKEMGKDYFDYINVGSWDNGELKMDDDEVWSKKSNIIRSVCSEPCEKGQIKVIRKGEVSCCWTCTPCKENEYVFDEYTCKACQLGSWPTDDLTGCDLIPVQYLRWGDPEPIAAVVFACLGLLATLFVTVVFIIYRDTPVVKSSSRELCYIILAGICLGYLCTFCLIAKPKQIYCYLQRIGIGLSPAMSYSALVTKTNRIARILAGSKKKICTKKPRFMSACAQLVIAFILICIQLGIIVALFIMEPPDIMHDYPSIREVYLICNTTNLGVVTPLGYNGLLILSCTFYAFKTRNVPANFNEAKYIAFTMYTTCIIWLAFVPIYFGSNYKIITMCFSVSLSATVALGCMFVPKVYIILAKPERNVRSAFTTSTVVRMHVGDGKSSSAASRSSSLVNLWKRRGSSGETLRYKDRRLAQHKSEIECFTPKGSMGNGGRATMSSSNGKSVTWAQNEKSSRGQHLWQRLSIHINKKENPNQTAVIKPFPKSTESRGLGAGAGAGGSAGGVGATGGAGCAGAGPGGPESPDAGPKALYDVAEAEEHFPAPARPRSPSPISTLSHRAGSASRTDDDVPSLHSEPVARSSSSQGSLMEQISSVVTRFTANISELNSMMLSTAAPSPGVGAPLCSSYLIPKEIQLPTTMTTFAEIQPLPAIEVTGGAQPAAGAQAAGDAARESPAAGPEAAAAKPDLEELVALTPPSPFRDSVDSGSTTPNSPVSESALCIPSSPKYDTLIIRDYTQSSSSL
# [8] = target: Tachykinin NK1 (Homo sapiens, UniProt P25103); test: Lead Profiling Screen, Eurofins Panlabs; type: binding; conditions: Tachykinin NK1, hum, read-out: % inh at 10 μM
# Sequence of Tachykinin NK1 (P25103 whole entry): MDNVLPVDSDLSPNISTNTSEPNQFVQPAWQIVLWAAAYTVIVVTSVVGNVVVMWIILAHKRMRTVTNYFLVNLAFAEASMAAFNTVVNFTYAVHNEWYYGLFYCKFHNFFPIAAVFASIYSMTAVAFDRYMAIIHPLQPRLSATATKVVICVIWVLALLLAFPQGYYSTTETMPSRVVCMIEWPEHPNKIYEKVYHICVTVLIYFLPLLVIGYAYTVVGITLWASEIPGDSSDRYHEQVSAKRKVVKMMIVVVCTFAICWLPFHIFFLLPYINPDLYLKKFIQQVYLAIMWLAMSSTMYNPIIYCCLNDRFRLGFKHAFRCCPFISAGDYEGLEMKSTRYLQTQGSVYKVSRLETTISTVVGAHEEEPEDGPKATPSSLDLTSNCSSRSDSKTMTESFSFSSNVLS
# [9] = test system: Phorbol Ester; test: Lead Profiling Screen, Eurofins Panlabs; type: binding; conditions: mouse
# [10] = test system: Transporter, GABA; test: Lead Profiling Screen, Eurofins Panlabs; type: binding; conditions: rat
# [11] = target: Muscarinic M1 (Homo sapiens, UniProt P11229); test: Lead Profiling Screen, Eurofins Panlabs; type: binding; conditions: Muscarinic M1, hum, read-out: % inh at 10 μM
# [12] = target: Adenosine A3 (Homo sapiens, UniProt P0DMS8); test: Lead Profiling Screen, Eurofins Panlabs; type: binding; conditions: Adenosine A3, hum, read-out: % inh at 10 μM
# Source text: (§1) Nonetheless, as a non-aryl/heterobiaryl acetylene mGlu5 NAM with an encouraging in vivo rodent PK profile, we wished to further assess VU6043653 as a novel chemotype. Therefore, we compared metabolites in multiple species to better understand species differences in clearance and metabolism. […] Consistent with the high plasma clearance observed in dogs, high turnover was observed more so in dog hepatocytes than any other species tested (see the Supporting Information for additional details and results). To further evaluate our novel chemotype, the off-target and safety/toxicity profiles for this compound were further investigated.
# (§2) Table S2. Lead Profiling Screen – Eurofins Panlabs for VU6043653.
# (§3) Assay Name Species % inh at 10 μM
# (§4) Androgen (Testosterone) hum 75
# (§5) Calcium Channel L-Type, Benzothiazepine rat 22
# (§6) Calcium Channel L-Type, Dihydropyridine rat 1
# (§7) Calcium Channel N-Type rat -8
# (§8) Epidermal Growth Factor (EGF) hum -3
# (§9) GABAA, Flunitrazepam, Central rat 0
# (§10) GABAA, Muscimol, Central rat -5
# (§11) Glutamate, Kainate rat -7
# (§12) Glutamate, NMDA, Agonism rat 3
# (§13) Glutamate, NMDA, Glycine rat -18
# (§14) Glutamate, NMDA, Phencyclidine rat -4
# (§15) Imidazoline I2, Central rat -1
# [13] = target: Androgen (Testosterone) (Homo sapiens, UniProt P10275); test: Lead Profiling Screen, Eurofins Panlabs; type: binding; conditions: hum, read-out: % inh at 10 μM
# Sequence of Androgen (Testosterone) (P10275 whole entry): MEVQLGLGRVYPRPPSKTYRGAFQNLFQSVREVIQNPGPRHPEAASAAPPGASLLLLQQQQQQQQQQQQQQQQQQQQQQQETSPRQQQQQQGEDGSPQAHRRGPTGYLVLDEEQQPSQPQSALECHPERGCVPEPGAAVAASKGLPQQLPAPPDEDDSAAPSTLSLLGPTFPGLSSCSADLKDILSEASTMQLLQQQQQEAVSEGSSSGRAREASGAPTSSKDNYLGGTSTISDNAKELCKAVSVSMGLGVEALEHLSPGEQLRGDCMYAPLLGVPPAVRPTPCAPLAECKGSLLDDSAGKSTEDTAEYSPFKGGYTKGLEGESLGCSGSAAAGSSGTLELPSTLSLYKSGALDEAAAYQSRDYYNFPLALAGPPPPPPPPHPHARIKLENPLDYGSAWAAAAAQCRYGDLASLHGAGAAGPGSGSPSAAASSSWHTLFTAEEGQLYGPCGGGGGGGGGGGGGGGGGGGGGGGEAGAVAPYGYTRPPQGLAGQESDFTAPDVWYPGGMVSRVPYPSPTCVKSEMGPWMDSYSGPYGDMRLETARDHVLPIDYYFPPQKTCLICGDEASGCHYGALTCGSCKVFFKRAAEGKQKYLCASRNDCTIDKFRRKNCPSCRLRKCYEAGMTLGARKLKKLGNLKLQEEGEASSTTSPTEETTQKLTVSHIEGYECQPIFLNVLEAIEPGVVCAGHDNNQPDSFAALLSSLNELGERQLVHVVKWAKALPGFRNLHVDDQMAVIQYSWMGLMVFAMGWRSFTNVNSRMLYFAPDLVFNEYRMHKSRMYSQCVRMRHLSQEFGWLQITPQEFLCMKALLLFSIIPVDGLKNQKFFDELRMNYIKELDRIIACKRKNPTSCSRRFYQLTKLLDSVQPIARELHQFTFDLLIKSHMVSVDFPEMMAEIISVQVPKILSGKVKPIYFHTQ
# Source text: as §1, §2, §3, §4, §5, §6, §7, §8, §9, §10, §11, §12, §13, §14, §15
# Sequence of Nicotinic Acetylcholine α3β4 (P32297 32-505): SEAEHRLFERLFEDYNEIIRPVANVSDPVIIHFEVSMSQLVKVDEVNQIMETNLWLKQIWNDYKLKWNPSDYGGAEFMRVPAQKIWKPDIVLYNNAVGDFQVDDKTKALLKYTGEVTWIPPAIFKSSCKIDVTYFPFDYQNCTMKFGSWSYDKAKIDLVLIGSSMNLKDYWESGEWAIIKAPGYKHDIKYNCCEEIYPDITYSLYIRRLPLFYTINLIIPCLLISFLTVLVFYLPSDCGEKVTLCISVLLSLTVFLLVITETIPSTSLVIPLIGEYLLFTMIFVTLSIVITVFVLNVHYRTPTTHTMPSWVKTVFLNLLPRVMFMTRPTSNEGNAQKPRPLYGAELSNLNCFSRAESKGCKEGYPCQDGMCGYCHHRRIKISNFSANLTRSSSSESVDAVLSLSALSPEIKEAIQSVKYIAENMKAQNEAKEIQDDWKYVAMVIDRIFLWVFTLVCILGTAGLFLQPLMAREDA
# Sequence of Nicotinic Acetylcholine α3β4 (P30926 22-498): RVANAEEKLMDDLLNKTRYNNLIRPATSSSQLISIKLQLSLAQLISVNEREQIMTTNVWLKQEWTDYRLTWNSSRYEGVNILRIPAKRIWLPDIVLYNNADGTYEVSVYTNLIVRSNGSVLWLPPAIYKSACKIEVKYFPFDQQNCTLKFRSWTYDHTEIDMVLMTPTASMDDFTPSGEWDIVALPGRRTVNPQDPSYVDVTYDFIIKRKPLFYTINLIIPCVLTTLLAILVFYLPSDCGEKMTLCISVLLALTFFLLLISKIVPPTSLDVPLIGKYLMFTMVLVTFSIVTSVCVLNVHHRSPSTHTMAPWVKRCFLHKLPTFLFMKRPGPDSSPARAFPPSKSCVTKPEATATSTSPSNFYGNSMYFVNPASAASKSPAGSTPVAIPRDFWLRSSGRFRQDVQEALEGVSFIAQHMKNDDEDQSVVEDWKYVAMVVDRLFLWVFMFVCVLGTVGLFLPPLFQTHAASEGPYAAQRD
smiles,measurement,setting,value
Cc1cc(Oc2cnn(C)c2)cc(C(=O)Nc2ccc(F)cn2)n1 [22iA],inhibition at 10 µM,[1],6%
same,inhibition at 10 µM,[2],-12%
same,"fraction unbound at 6 h, 5 µM",[3],0.059
same,inhibition at 10 µM,[4],-7%
same,IC50,[5],≥ 30 µM
same,IC50,[6],≥ 30 µM
same,fold increase in hmGlu5 potency,"[7]; 22fC vs 22bC, 22gA vs 22iA, 22iA vs 22hA, 22iB vs 22hB",1.6 fold
same,% GluMin,"[7]; efficacy of the NAM to reduce an EC80 response of glutamate, human mGlu5-HEK293A cells",2%
same,pIC50,"[7]; human mGlu5-HEK293A cells, EC80 fixed concentration of glutamate, n = 2 in triplicate",6.49
same,IC50,"[7]; human mGlu5-HEK293A cells, EC80 fixed concentration of glutamate, read-out: hmGlu5 IC50",0.325 µM
same,inhibition at 10 µM,[8],15%
same,% inh at 10 μM,[9],-1%
same,% inh at 10 μM,[10],-1%
same,inhibition at 10 µM,[11],-13%
same,inhibition at 10 µM,[12],≥ 70%
same,inhibition at 10 µM,[13],≥ 70%
